Measured values from patent US20250017935A1, “7,8-DIHYDRO-5H-1,6-NAPHTHYRIDINE DERIVATIVES AS POSITIVE ALLOSTERIC MODULATORS OF THE MUSCARINIC ACETYLCHOLINE RECEPTOR M4 FOR TREATING NEUROLOGICAL AND PSYCHIATRIC DISORDERS” (Vanderbilt University, priority 2021, published 2025).

Target: T1, Human M4 (Homo sapiens, UniProt P08173)
T1 construct: expressed in transfected cells; host or cells: CHO-K1 (ATCC), stably expressing hM4 and Gqi5
T1 sequence (P08173 1-479): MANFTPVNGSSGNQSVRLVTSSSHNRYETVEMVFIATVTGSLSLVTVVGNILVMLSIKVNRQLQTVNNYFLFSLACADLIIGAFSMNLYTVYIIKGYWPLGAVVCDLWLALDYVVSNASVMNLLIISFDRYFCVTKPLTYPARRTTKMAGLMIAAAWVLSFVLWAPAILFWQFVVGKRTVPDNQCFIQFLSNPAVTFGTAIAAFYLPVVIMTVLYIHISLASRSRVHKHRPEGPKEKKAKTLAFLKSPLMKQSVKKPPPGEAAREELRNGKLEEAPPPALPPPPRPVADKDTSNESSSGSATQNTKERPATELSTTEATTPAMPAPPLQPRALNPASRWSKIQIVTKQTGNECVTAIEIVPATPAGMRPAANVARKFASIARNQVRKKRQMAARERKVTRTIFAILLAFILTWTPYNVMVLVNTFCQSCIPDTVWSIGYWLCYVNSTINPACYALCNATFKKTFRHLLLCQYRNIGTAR
Assay: mAChR M4 cell-based functional assay (calcium flux, potentiation of EC20 acetylcholine response) in hM4-Gqi5 CHO-K1 cells
Details: for Emax at 30 µM: % ACh maximum at 30 μM, human M4 CHO-K1 cells; for EC50: CHO-K1 cells transfected with human M4 and Gqi5, positive allosteric modulator activity, EC20 acetylcholine
Experimental: Human M4 cDNA, along with the chimeric G protein Gqi5, were transfected into Chinese hamster ovary (CHO-K1) cells purchased from the American Type Culture Collection using commercially available Lipofectamine 2000 transfection reagent (Dalby, B. et al., Methods (2004) 33(2), 95-103). hM4-Gqi5 cells were grown in Ham's F-12 medium containing 10% heat-inactivated fetal bovine serum (FBS), 20 mM HEPES, 50 μg/mL G418 sulfate (CAS #108321-42-2), and 500 μg/mL Hygromycin B. rM4-Gqi5 cells were grown in DMEM containing 10% heat-inactivated FBS, 20 mM HEPES, 400 μg/mL G418 sulfate, and 500 μg/mL Hygromycin B.
For high throughput measurement of agonist-evoked increases in intracellular calcium, CHO-K1 cells stably expressing muscarinic receptors were plated in growth medium lacking G418 sulfate and hygromycin at 15,000 cells/20 μL/well in Greiner 384-well black-walled, tissue culture (TC)-treated, clear-bottom plates (VWR). Cells were incubated overnight at 37° C. and 5% CO2. The next day, cells were washed using an ELX 405 (BioTek) with assay buffer; the final volume was then aspirated to 20 μL. Next, 20 μL of a 2.3 μM stock of Fluo-4/acetoxymethyl ester (Invitrogen, Carlsbad, CA), prepared as a 2.3 mM stock in DMSO and mixed in a 1:1 ratio with 10% (w/v) Pluronic F-127 and diluted in assay buffer, was added to the wells and the cell plates were incubated for 50 minutes at 37° C. and 5% CO2. Dye was removed by washing with the ELX 405 and the final volume was aspirated to 20 μL. Compound master plates were formatted in an 11 point concentration-response curve (CRC) format (1:3 dilutions) in 100% DMSO with a starting concentration of 10 mM using a BRAVO liquid handler (Agilent). Test compound CRCs were then transferred to daughter plates (240 nL) using the Echo acoustic plate reformatter (Labcyte, Sunnyvale, CA) and then diluted into assay buffer (40 μL) to a 2× stock using a Thermo Fisher Combi (Thermo Fisher Scientific, Waltham, MA).
Calcium flux was measured using the Functional Drug Screening System (FDSS) 6000 or 7000 (Hamamatsu Corporation, Tokyo, Japan) as an increase in the fluorescent static ratio. Compounds were applied to cells (20 μL, 2×) using the automated system of the FDSS at 2-4 seconds into the protocol and the data were collected at 1 Hz. […] Agonist activity was analyzed as a concentration-dependent increase in calcium mobilization upon compound addition. Positive allosteric modulator activity was analyzed as a concentration-dependent increase in the EC20 acetylcholine response. With the acetylcholine EC20 set as baseline, the test compound EC50 is determined as the concentration that produces an increase above baseline of 50% of the maximum increase in acetylcholine response elicted by the test compound. Antagonist activity was analyzed as a concentration-dependent decrease in the EC80 acetylcholine response. Concentration-response curves were generated using a four-parameter logistical equation in XLFit curve fitting software (IDBS, Bridgewater, NJ) for Excel (Microsoft, Redmond, WA) or Prism (GraphPad Software, Inc., San Diego, CA).
Compounds were synthesized as described above. Activity (EC50 and Emax) was determined in the mAChR M4 cell-based functional assay as described above and the data are shown in Table 5. The compound numbers correspond to the compound numbers used in Examples 1-13 and Tables 1, 2, and 3.

Row | Structure (SMILES) | Emax at 30 µM | EC50
1 | Cc1ccc(-c2cnc3c(c2)CN(c2ncnc4c(C)csc24)CC3)cn1 [Compound 15, 7-methyl-4-[3-(6-methyl-3-pyridyl)-7,8-dihydro-5H-1,6-naphthyridin-6-yl]thieno[3,2-d]pyrimidine] | 45% | 550 nM
2 | Cc1csc2ncnc(N3CCc4ncc(N5CCOc6ncccc65)cc4C3)c12 [Compound 16, 1-[6-(5-methylthieno[2,3-d]pyrimidin-4-yl)-7,8-dihydro-5H-1,6-naphthyridin-3-yl]-2,3-dihydropyrido[2,3-b][1,4]oxazine] | 91% | 60 nM
3 | Cc1ccc(-c2cnc3c(c2)CN(c2ncnc4scc(C)c24)CC3)cn1 [Compound 17, 5-methyl-4-[3-(6-methyl-3-pyridyl)-7,8-dihydro-5H-1,6-naphthyridin-6-yl]thieno[2,3-d]pyrimidine] | 79% | 180 nM
4 | Cc1ncc(-c2cnc3c(c2)CN(c2ncnc4scc(C)c24)CC3)s1 [Compound 18, 5-methyl-4-[3-(2-methylthiazol-5-yl)-7,8-dihydro-5H-1,6-naphthyridin-6-yl]thieno[2,3-d]pyrimidine] | 72% | 470 nM
5 | Cc1ccc(Oc2cnc3c(c2)CN(c2ncnc4scc(C)c24)CC3)c(F)c1 [Compound 19, 4-[3-(2-fluoro-4-methyl-phenoxy)-7,8-dihydro-5H-1,6-naphthyridin-6-yl]-5-methyl-thieno[2,3-d]pyrimidine] | 58% | 1840 nM
6 | Cc1cc2c(N3CCc4ncc(-c5cnn(C6CC6)c5)cc4C3)ncnc2s1 [Compound 20, 4-[3-(1-cyclopropylpyrazol-4-yl)-7,8-dihydro-5H-1,6-naphthyridin-6-yl]-6-methyl-thieno[2,3-d]pyrimidine] | 91% | 470 nM
7 | Cc1cc2c(N3CCc4ncc(-c5cnc(C)s5)cc4C3)ncnc2s1 [Compound 21, 6-methyl-4-[3-(2-methylthiazol-5-yl)-7,8-dihydro-5H-1,6-naphthyridin-6-yl]thieno[2,3-d]pyrimidine] | 88% | 250 nM
8 | Cc1csc2c(N3CCc4ncc(N5CCCn6nccc65)cc4C3)ncnc12 [Compound 22, 4-[3-(6,7-dihydro-5H-pyrazolo[1,5-a]pyrimidin-4-yl)-7,8-dihydro-5H-1,6-naphthyridin-6-yl]-7-methyl-thieno[3,2-d]pyrimidine] | 85% | 280 nM
9 | Cc1nn(C)cc1-c1cnc2c(c1)CN(c1ncnc3c(C)csc13)CC2 [Compound 23, 4-[3-(1,3-dimethylpyrazol-4-yl)-7,8-dihydro-5H-1,6-naphthyridin-6-yl]-7-methyl-thieno[3,2-d]pyrimidine] | 59% | 560 nM
10 | Cc1csc2c(N3CCc4ncc(N5CCOc6ncccc65)cc4C3)ncnc12 [Compound 24, 1-[6-(7-methylthieno[3,2-d]pyrimidin-4-yl)-7,8-dihydro-5H-1,6-naphthyridin-3-yl]-2,3-dihydropyrido[2,3-b][1,4]oxazine] | 70% | 220 nM
11 | Cc1csc2ncnc(N3CCc4ncc(N5CCCn6nccc65)cc4C3)c12 [Compound 25, 4-[3-(6,7-dihydro-5H-pyrazolo[1,5-a]pyrimidin-4-yl)-7,8-dihydro-5H-1,6-naphthyridin-6-yl]-5-methyl-thieno[2,3-d]pyrimidine] | 96% | 60 nM
12 | Cc1csc2ncnc(N3CCc4ncc(-c5cnn(C6CC6)c5)cc4C3)c12 [Compound 26, 4-[3-(1-cyclopropylpyrazol-4-yl)-7,8-dihydro-5H-1,6-naphthyridin-6-yl]-5-methyl-thieno[2,3-d]pyrimidine] | 75% | 280 nM
13 | Cc1ccc(F)c(Oc2cnc3c(c2)CN(c2ncnc4ccsc24)CC3)c1 [Compound 27, 4-[3-(2-fluoro-5-methyl-phenoxy)-7,8-dihydro-5H-1,6-naphthyridin-6-yl]thieno[3,2-d]pyrimidine] | 36% | 2380 nM
14 | Cc1nn(C)cc1-c1cnc2c(c1)CN(c1ncnc3scc(C)c13)CC2 [Compound 28, 4-[3-(1,3-dimethylpyrazol-4-yl)-7,8-dihydro-5H-1,6-naphthyridin-6-yl]-5-methyl-thieno[2,3-d]pyrimidine] | 78% | 90 nM
15 | FC(F)(F)c1cnc2c(c1)CN(c1ncnc3scc(Br)c13)CC2 [Compound 29, 5-bromo-4-[3-(trifluoromethyl)-7,8-dihydro-5H-1,6-naphthyridin-6-yl]thieno[2,3-d]pyrimidine] | 74% | 310 nM
16 | FC(F)(F)c1cnc2c(c1)CN(c1ncnc3sc(Br)cc13)CC2 [Compound 30, 6-bromo-4-[3-(trifluoromethyl)-7,8-dihydro-5H-1,6-naphthyridin-6-yl]thieno[2,3-d]pyrimidine] | 88% | 80 nM
17 | CC(C)c1cc2c(N3CCc4ncc(N5CCCn6nccc65)cc4C3)ncnc2s1 [Compound 31, 4-[3-(6,7-dihydro-5H-pyrazolo[1,5-a]pyrimidin-4-yl)-7,8-dihydro-5H-1,6-naphthyridin-6-yl]-6-isopropyl-thieno[2,3-d]pyrimidine] | 58% | 440 nM
18 | Cc1csc2ncnc(N3CCc4ncc(Oc5ccccc5F)cc4C3)c12 [Compound 32, 4-[3-(2-fluorophenoxy)-7,8-dihydro-5H-1,6-naphthyridin-6-yl]-5-methyl-thieno[2,3-d]pyrimidine] | 59% | 560 nM
19 | Fc1ccccc1Oc1cnc2c(c1)CN(c1ncnc3sccc13)CC2 [Compound 33, 4-[3-(2-fluorophenoxy)-7,8-dihydro-5H-1,6-naphthyridin-6-yl]thieno[2,3-d]pyrimidine] | 46% | 200 nM
20 | Cn1nccc1Nc1cnc2c(c1)CN(c1ncnc3sccc13)CC2 [Compound 34, N-(2-methylpyrazol-3-yl)-6-thieno[2,3-d]pyrimidin-4-yl-7,8-dihydro-5H-1,6-naphthyridin-3-amine] | 55% | 100 nM
21 | Cc1noc(C)c1-c1cnc2c(c1)CN(c1ncnc3sc(C(C)C)cc13)CC2 [Compound 35, 4-[6-(6-isopropylthieno[2,3-d]pyrimidin-4-yl)-7,8-dihydro-5H-1,6-naphthyridin-3-yl]-3,5-dimethyl-isoxazole] | 22% | 1230 nM
22 | [2H]c1csc2ncnc(N3CCc4ncc(C(F)(F)F)cc4C3)c12 [Compound 36, 5-deuterio-4-[3-(trifluoromethyl)-7,8-dihydro-5H-1,6-naphthyridin-6-yl]thieno[2,3-d]pyrimidine] | 78% | 160 nM
23 | FC(F)(F)c1cnc2c(c1)CN(c1ncnc3scc(C4CC4)c13)CC2 [Compound 37, 5-cyclopropyl-4-[3-(trifluoromethyl)-7,8-dihydro-5H-1,6-naphthyridin-6-yl]thieno[2,3-d]pyrimidine] | 22% | 1390 nM
